Experiments:
KG-1 cells = assay: Cell viability CTG assay, KG-1; assay type: cell-based; details: Homo sapiens, 72 hours treatment, read-out: KG-1 Geomean absolute IC50
Experimental: (§1) The effect of selected compounds of the invention on cell viability in various cell lines was investigated using the Cell Viability—CTG Assay Protocol below.
(§2) Hep3B, Hep3B GSPT1 G575N mut., Kelly, KG-1 and NCI-H929 cells were maintained in respective cell medium (see Table 5, below). Cells were seeded in appropriate density (see Table 6, below) onto 384-white plates (Greiner, cat. no. 781080 or 781098) and incubated overnight (Hep3B, Hep3B GSPT1 G575N, Kelly) or treated with compounds immediately after seeding (KG-1, NCI-H929). Tested compounds and DMSO (vehicle control) were dispensed to the plates using Echo 555 Liquid Handler. 12 data-point compound titration curve with concentrations ranging from 50 μM to 1 nM was used. Final DMSO concentration was kept constant at 0.25% v/v across the assay plate. After 72 h incubation (37° C., 5% CO2), cell viability was assessed using CellTiter-Glo® assay kit (Promega, cat. no G7573). Luminescence was measured using CLARIOstar multimode plate reader (BMG LABTECH). The raw data (the relative luminescence unit values, RLU) were uploaded under the relevant protocol and analysed in CDDVault data management platform. Luminescence (RLU) values were normalized to the controls, and reported absolute IC50 values were calculated in CDDVault using non-linear regression and appropriate equations.

Kelly cells = assay: Cell viability CTG assay, Kelly; assay type: cell-based; details: 72 hours treatment, read-out: Kelly Geomean absolute IC50
Experimental: as §1, §2

NCI-H929 cells = assay: Cell viability CTG assay, NCI-H929; assay type: cell-based; details: Homo sapiens, 72 hours treatment, read-out: NCI-H929 Geomean absolute IC50
Experimental: as §1, §2

Hep3B cells = assay: Cell viability CTG assay, Hep3B; assay type: cell-based; details: Homo sapiens, 72 hours treatment, read-out: Hep3B Geomean absolute IC50
Experimental: as §1, §2

[1] = system: Hep3B GSPT1 G575N mut. cells; assay: Cell viability CTG assay, Hep3B GSPT1 G575N mut.; assay type: cell-based; details: Homo sapiens, 72 hours treatment, read-out: Hep3B GSPT1 G575N Geomean absolute IC50
Experimental: as §1, §2

[2] = Chemical stability in MV-4-11 medium; details: 37° C.
Experimental: Next, 500 μL of each solution was transferred to the 96-deep-well plate. Three replicates for each compound were performed. Plate was afterwards incubated at 37° C. with shaking (220 rpm). 50 μL of sample were withdrawn for the each timepoint (0, 1, 3, 6, 24, 48, 72, and 168 hours) and immediately mixed with 50 μL of acetonitrile. Next, samples were centrifuged at 3900 rpm, 10° C. for 20 minutes. 40 μL of supernatant was diluted with 120 μL of acetonitrile containing internal standard (IS) (10 μM), mixed, and analyzed by LC-MS/MS.
Thermo Fisher Scientific Altis+ coupled with a Vanquish system were used for UHPLC-MS/MS analysis. Analytes were separated on a Kinetex XB-C18 2.6 μm, 50×2.1 mm column, using gradient of water with 0.1% (v/v) formic acid (solvent A) and acetonitrile with 0.1% (v/v) formic acid (solvent B): 0.0 min 5% B, 0.5 min 5% B, 1.0 min 70% B, 3.0 min 95% B, 3.5 min 95% B, 3.7 min 5% B, 5 min 5% B. The mobile phase flow rate was set to 0.3 mL/min and the column was kept in 40° C. 1 μL of samples were injected. The MS/MS analysis was performed using SRM mode in positive ionization. Source parameters were set as follow: Ion Source Type H-ESI, Spray Voltage 3800 V, Sheath Gas 50 Arb, Aux Gas 10 Arb, Sweep Gas 1 Arb, Ion Transfer Tube Temp 325° C., Vaporizer Temp 350° C., Collision Gas Pressure 1.5 mTorr, Q1/Q3 Resolution (FWHM) 0.7. Three transitions were monitored for each analyte and for the internal standard:
Quantitation was based on the peak area ratio between the test compound and IS. The amount of compound remaining in the sample was calculated as follow:
The slope of logarithmic curve of percent remaining versus time has been used for calculation of half-life (t_half). First, the elimination constant (k) was calculated using the equation:
Next, half-life (t_half) was calculated using equation:

Row | IC50 (NCI-H929 cells) [µM] | IC50 (Hep3B cells) [µM] | IC50 [1] [µM] | % remaining at 24 hrs ([2]; concentration 1 μM) | t_half [hours] ([2]; concentration 1 μM) | % remaining at 24 hrs ([2]; concentration 10 μM) | t_half [hours] ([2]; concentration 10 μM) | SMILES | IC50 (KG-1 cells) [µM] | IC50 (Kelly cells) [µM]
1 | > 5 | > 5 | > 5 | – | – | – | – | Cc1ccc(NC(=S)NCc2ccc3cc(C4CCC(=O)NC4=O)c(C)nc3c2)cc1Cl (stereo not shown) [Compound 2, 1-(3-chloro-4-methylphenyl)-3-((3-(2,6-dioxopiperidin-3-yl)-2-methylquinolin-7-yl)methyl)thiourea] | 1 to 5 | 1 to 5
2 | ≤ 0.1 | ≤ 0.1 | > 5 | a (a≥50%) | A (A≥15 hrs) | b (25%≤b<50%) | A (A≥15 hrs) | Cc1ccc(NC(=O)OCc2ccc3cc(C4CCC(=O)NC4=O)c(C)nc3c2)cc1Cl (stereo not shown) [Compound 4, (3-(2,6-dioxopiperidin-3-yl)-2-methylquinolin-7-yl)methyl (3-chloro-4-methylphenyl)carbamate] | ≤ 0.1 | ≤ 0.1
3 | ≤ 0.1 | ≤ 0.1 | > 5 | – | – | – | – | Cc1ccc(NC(=O)OCc2ccc3nc(C)c(C4CCC(=O)NC4=O)cc3c2)cc1Cl (stereo not shown) [Compound 5, (3-(2,6-dioxopiperidin-3-yl)-2-methylquinolin-6-yl)methyl (3-chloro-4-methylphenyl)carbamate] | ≤ 0.1 | ≤ 0.1

— patent US20260232682A1, “GSPT1 DEGRADER COMPOUNDS” (Captor Therapeutics S.A., priority 2023, published 2026)
